Where “and” joins values, the source holds several entries; their conditions need not be identical. Equal entries are not always repeated.
Experiments:
[1] = tested on: nitric oxide synthase (NOS); experiment: Kinetic study on inhibitory activity of NOS; type: biochemical; settings: seven concentrations 1-10.0 μM; Figure 3; read-out: IC50 NOS inhibition (kinetic study)
Method: (§1) A nitric oxide synthase (NOS) assay was performed following the procedure recommended by the manufacturer as outlined in the screening kit (Catalogue No. EINO-100; EnzyChrom). Various concentrations (1, 2.5, 4.0, 5.5, 7.0, 8.5 and 10.0 µM) of the compounds 3i and the reference standard, DPI, were prepared. The enzyme solution (12.5 U/mL NOS, 10 uL), assay buffer (25 µL) and test samples (5 µL) were incubated at room temperature for 15 min. After pre-incubation, 10 µL of reaction mix was added and incubated at 37 °C for 60 min. A 200 µL quantity of NO detection reagent was added, the detection reaction was run at 37 °C for 60 min, and absorbance was determined at a wavelength of 540 nm using an Elisa plate reader (Varioskan Flash, ThermoFisher Scientific, Vantaa, Finland). The average of three readings was used to calculate the NOS percentage inhibition using the formula in Section 2.6.3

[2] = tested on: NOS of semipurified enzyme preparation or activated macrophage cytosol; settings: 30 min. incubation with 10 μM DPI at 37 °C; cited from earlier work
[3] = target: superoxide dismutase (SOD); experiment: Superoxide dismutase (SOD) inhibitory assay (SOD assay kit-WST); type: biochemical; settings: duplicate; 1-50 µM; 25 °C, 30 min; read-out: IC50 SOD inhibition
Method: The antioxidant activity of the compounds 3a, 3c, 3f, 3i, 3l, 3n and 3p against superoxide radicals was assessed via enzymatic assay in vitro using the SOD assay kit-WST according to the manufacturer’s instructions (Sigma-Aldrich®). The reaction mixtures in the SOD kit were combined with 20 μL of working solution of the samples in a 96-well plate. Plates were gently shaken and then incubated at 25 °C for 30 min. The reference positive control, diphenyleneiodonium (DPI), and the compounds were tested at 01, 5, 10, 25 and 50 µM in duplicates. The inhibition activity of SOD on the reaction of […] generated the superoxide with a tetrazolium salt, which was then determined by measuring the absorbance of the mixtures at a wavelength of 450 nm using an Elisa plate reader (Varioskan Flash, ThermoFisher Scientific, Vantaa, Finland). The SOD activity values obtained used to calculate the percentage of inhibition. % SOD activity=ODx− ODy/ODx ×100% where ODx is the absorbance of the blank (untreated SOD) and ODy is the absorbance of the sample (treated SOD). All tests were performed in duplicate.

[4] = tested on: breast cancer (MCF-7) cell line; experiment: MTT cytotoxicity assay, MCF-7; settings: for Cell viability percentage, MCF-7: Table S2; for IC50: Homo sapiens, MCF7, read-out: IC50 MCF-7
[5] = tested on: human embryonic kidney (HEK293-T) cell line; experiment: MTT cytotoxicity assay, HEK293-T; settings: Homo sapiens, HEK-293T, read-out: IC50 Hek293-T
Method: (§2) Cells were cultured in sterile Dulbecco’s Minimal Essential Medium (DMEM, Gibco) supplemented with 10% fetal bovine serum (FBS) and 1% penicillin-streptomycin solution. […] Cell counting was carried out using a handheld automated cell counter (Scapter 3.0™, Merck, Burlington, MA, USA) and seeded (1 × 10^4 cells/well) into a 96-well plate. After 24 h, the cells were treated with different concentrations (1, 5, 10, 25 and 50 µM) of the test compounds and reference standards prepared in DMEM. The MTT solution (20 μL) prepared in PBS (5 mg/mL) was added to all the wells, and the plates were incubated for 4 h, followed by 1 h incubation with 100 µL of dimethyl sulfoxide (DMSO) to dissolve the formazan crystals. Untreated cells and 5% DMSO were included in the experiment as negative controls. All experiments were performed in triplicate. The plates were read at 570 nm at a reference wavelength of 630 nm using an ELISA plate reader (Varioskan Flash, ThermoFisher Scientific, Vantaa, Finland). The percentage of cell viability was calculated using the following formula, Cell viability %=At/Ab×100 where At represents the absorbance value of test compound and Ab the absorbance value of the blank. […] The data were expressed as means ± SD.

[6] = MTT cytotoxicity assay, HEK293-T; settings: human, HEK293-T cells
Method: as §2

[7] = target: T1, human α-amylase (Homo sapiens, UniProt P04746); experiment: α-amylase inhibitor screening kit assay; type: biochemical; settings: mean ± SD, triplicate; tested at 1, 5, 10, 25, 50 µM
T1 construct: purchased Abcam ab283391
T1 sequence (P04746 16-511): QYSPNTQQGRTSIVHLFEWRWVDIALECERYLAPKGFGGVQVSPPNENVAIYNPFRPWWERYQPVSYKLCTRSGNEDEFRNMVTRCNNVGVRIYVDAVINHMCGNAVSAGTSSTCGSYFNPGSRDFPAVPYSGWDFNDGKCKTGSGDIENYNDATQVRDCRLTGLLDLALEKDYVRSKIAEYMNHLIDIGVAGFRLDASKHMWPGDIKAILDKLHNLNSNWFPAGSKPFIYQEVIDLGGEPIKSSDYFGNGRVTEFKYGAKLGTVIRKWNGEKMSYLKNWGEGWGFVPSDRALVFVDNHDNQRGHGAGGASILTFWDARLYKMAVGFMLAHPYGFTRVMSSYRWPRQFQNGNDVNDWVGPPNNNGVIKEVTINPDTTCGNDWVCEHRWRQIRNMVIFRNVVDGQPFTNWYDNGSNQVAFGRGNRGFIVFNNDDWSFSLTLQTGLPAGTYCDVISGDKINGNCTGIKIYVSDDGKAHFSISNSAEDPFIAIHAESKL
Method: The α-amylase assay was performed in triplicate, using a 96-well plate following the procedure recommended by the manufacturer as outlined in the α-amylase inhibitor Screening Kit (Catalogue No. ab283391; Abcam). […] The average values obtained from the absorbance readings were used to determine the IC50 and standard deviation values in GraphPad prism from nonlinear regression dose–response curves.

[8] = NO free radical scavenging assay (sodium nitroprusside/Griess); settings: mean ± SD; sodium nitroprusside, Griess reagent, 550 nm
Method: The assay was conducted following the method described in our previous study. A mixture of 10 mM sodium nitroprusside (20 µL), phosphate buffer (5 µL) and the test compound (5 µL) were incubated at 25 °C in a 96-well plate for 2.5 h. After incubation, 20 µL of Griess reagent (1.00 g of sulfanilic acid + 0.10 g naphthylethylene diamine dihydrochloride) was added to the previous mixture and allowed to stand for 30 min. […] Each experiment was performed in triplicate, and the average was taken. The average obtained from the absorbance readings was used to calculate the IC50 values in GraphPad prism from nonlinear regression dose–response curves.

[9] = target: T2, α-Glucosidase type 1 from baker's yeast (Saccharomyces cerevisiae, UniProt P53341); experiment: biochemical; settings: IC50 α-Glucosidase, mean ± SD, triplicate; tested at 1, 5, 10, 25, 50 µM
T2 construct: purchased Sigma Aldrich (Pty) Ltd. G5003
Method: The assay was conducted in triplicate following a method described in our previous study. […] After pre-incubation, 17 µL of 2 mM PNP-G was added. The absorbances were recorded in a 96-well microplate at 400 nm using an Elisa plate reader (Varioskan Flash, ThermoFischer Scientific, Vantaa, Finland). The average values obtained from the readings were used to determine the IC50 and standard deviation values using a GraphPad Prism software (Version 8, GraphPad Software Inc., San Diego, CA, USA). The average values obtained from the absorbance readings were used to determine the IC50 and standard deviation values in GraphPad prism from nonlinear regression dose–response curves.

[10] = tested on: lung cancer (A549) cell line; experiment: MTT cytotoxicity assay, A549; settings: for Cell viability percentage, A549: Table S3; for IC50: Homo sapiens, A549, read-out: IC50 A549
Method: as §2

[11] = DPPH radical scavenging assay; settings: mean ± SD; 45 min in the dark; 512 nm
Method: The DPPH radical scavenging assay was conducted following the procedure described in our previous study. The test compounds and ascorbic acid at various concentrations (ranging from 0 µM to 50 µM) in DMSO were mixed with a solution of DPPH (0.20 mM) in methanol and incubated in the dark for 45 min. Five absorbance readings were recorded at 512 nm using an Elisa plate reader (Varioskan Flash, ThermoFisher Scientific, Vantaa, Finland). The experiment was carried out in triplicate, and averaged values from the absorbance readings were used to determine the IC50 and standard deviation values in GraphPad prism from nonlinear regression dose–response curves.

[12] = tested on: NO generated from nitric oxide synthase (NOS); experiment: Inhibitory activity against NO generated from NOS (EnzyChrom kit); type: biochemical; settings: mean ± SD, 1-50 µM
Method: as §1, with “5, 10, 25” for “2.5, 4.0, 5.5, 7.0, 8.5”, “50” for “10.0”, “3a, 3c, 3f, 3i, 3l, 3n and 3p” for “3i”, “ascorbic acid,” for “DPI,”, “µL),” for “uL),”, “following formula: % Inhibition=1−ΔOD Test Compd/ΔOD No Inhibitor ×100%” for “formula in Section 2.6.3”
The IC50 values and standard deviation values were determined from nonlinear regression dose–response curve and compared with the results in GraphPad prism.

T2 sequence (P53341 whole entry): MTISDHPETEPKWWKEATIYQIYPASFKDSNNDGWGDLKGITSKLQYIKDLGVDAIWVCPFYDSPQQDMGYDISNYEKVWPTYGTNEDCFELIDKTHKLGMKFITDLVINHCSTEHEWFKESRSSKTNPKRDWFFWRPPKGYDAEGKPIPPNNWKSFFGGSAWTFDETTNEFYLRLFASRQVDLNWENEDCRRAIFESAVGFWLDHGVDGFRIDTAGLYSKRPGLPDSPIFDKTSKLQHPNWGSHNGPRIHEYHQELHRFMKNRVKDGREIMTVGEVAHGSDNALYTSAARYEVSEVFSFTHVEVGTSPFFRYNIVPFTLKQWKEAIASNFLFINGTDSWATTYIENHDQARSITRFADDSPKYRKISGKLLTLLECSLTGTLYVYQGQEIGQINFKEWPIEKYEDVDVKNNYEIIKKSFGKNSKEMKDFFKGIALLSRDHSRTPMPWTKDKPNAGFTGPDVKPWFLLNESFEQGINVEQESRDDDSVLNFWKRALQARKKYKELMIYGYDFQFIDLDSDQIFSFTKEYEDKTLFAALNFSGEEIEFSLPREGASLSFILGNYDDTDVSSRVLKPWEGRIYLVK

SMILES	IC50 [3]	melting point	Cell viability percentage, MCF-7 ([4]; Conc. 1 (µM per method))	Cell viability percentage, MCF-7 ([4]; Conc. 5 (µM per method))	Cell viability percentage, MCF-7 ([4]; Conc. 10 (µM per method))	Cell viability percentage, MCF-7 ([4]; Conc. 25 (µM per method))	Cell viability percentage, MCF-7 ([4]; Conc. 50 (µM per method))	IC50 [4]	IC50 [5]	viability at 1 µM [6]	viability at 5 µM [6]	viability at 10 µM [6]	viability at 25 µM [6]	viability at 50 µM [6]	IC50 [7]	IC50 [8]	IC50 [9]	Cell viability percentage, A549 ([10]; Conc. 1 (µM per method))	Cell viability percentage, A549 ([10]; Conc. 5 (µM per method))	Cell viability percentage, A549 ([10]; Conc. 10 (µM per method))	further results
c1ccc2c(c1)[I+]c1ccccc1-2 [DPI, diphenyleneiodonium chloride, reference compound]	0.71 ± 0.03 µM																				IC50 [1]: 3 ± 0.007 µM; NOS activity after incubation with inhibitor [2]: irreversibly inhibited
COc1ccc(C2Nc3c(I)cc(Br)cc3C(C)=[N+]2[O-])cc1 (stereo not drawn) [Compound 3l]	5.6 ± 0.17 µM	153 to 155 °C	66,3742%	55,5856%	51,5919%	35,1896%	17,5102%	18.12 ± 0.1 µM	32.39 ± 0.17 µM	80.4%	69.4%	59.2%	25.5%	19.7%	54.18 ± 0.01 µM	67.81 ± 0.004 µM	0.92 µM and 1.04 µM	89,6276%	82,1465%	60,333%	Cell viability percentage, A549 ([10]; Conc. 25 (µM per method)): 45,5732%; Cell viability percentage, A549 ([10]; Conc. 50 (µM per method)): 45,4944%; IC50 [10]: 16.34 ± 0.06 µM; IC50 [11]: 27.7 ± 0.04 µM; IC50 [12]: 1.06 ± 0.005 µM
CC1=[N+]([O-])C(c2ccc(F)cc2)Nc2ccc(I)cc21 (stereo not drawn) [Compound 3f]	11.59 ± 0.08 µM	180 to 182 °C	69,8879%	62,4071%	44,9558%	32,649%	23,6814%	19.01 ± 0.04 µM	22.32 ± 0.08 µM	72%	55.2%	47.8%	36.7%	14.7%	0.64 ± 0.01 µM	6.74 ± 0.002 µM	9.27 ± 0.02 µM	82,3715%	71,9204%	61,143%	Cell viability percentage, A549 ([10]; Conc. 25 (µM per method)): 44,212%; Cell viability percentage, A549 ([10]; Conc. 50 (µM per method)): 32,7708%; IC50 [10]: 13.71 ± 0.11 µM; IC50 [11]: 23.66 ± 0.009 µM; IC50 [12]: 4.7 ± 0.004 µM
CC1=[N+]([O-])C(c2ccc(Cl)cc2)Nc2ccc(Br)cc21 (stereo not drawn) [Compound 3c]	4.6 ± 0.14 µM	171 to 173 °C	46,7898%	44,7938%	42,5981%	41,6999%	37,2256%	25.48 ± 0.08 µM	27.54 ± 0.05 µM	64.7%	62.9%	50.3%	34.2%	23.5%	30.48 ± 0.02 µM	7.45 ± 0.002 µM	1.04 µM and 0.92 µM	73,4391%	66,5879%	54,3481%	Cell viability percentage, A549 ([10]; Conc. 25 (µM per method)): 41,782%; Cell viability percentage, A549 ([10]; Conc. 50 (µM per method)): 29,5534%; IC50 [10]: 15.26 ± 0.09 µM; IC50 [11]: 33.52 ± 0.025 µM; IC50 [12]: 1.1 ± 0.003 µM

— PMC10669220, “In Vitro α-Glucosidase and α-Amylase Inhibition, Cytotoxicity and Free Radical Scavenging Profiling of the 6-Halogeno and Mixed 6,8-Dihalogenated 2-Aryl-4-methyl-1,2-dihydroquinazoline 3-Oxides” (Antioxidants, 2023)
